Molecular target: HERG potassium channel (Homo sapiens, UniProt Q12809)
Assay: whole-cell patch clamp, HERG tail current in CHO cells
Format: cell-based

Chain of HERG potassium channel (Q12809 whole entry): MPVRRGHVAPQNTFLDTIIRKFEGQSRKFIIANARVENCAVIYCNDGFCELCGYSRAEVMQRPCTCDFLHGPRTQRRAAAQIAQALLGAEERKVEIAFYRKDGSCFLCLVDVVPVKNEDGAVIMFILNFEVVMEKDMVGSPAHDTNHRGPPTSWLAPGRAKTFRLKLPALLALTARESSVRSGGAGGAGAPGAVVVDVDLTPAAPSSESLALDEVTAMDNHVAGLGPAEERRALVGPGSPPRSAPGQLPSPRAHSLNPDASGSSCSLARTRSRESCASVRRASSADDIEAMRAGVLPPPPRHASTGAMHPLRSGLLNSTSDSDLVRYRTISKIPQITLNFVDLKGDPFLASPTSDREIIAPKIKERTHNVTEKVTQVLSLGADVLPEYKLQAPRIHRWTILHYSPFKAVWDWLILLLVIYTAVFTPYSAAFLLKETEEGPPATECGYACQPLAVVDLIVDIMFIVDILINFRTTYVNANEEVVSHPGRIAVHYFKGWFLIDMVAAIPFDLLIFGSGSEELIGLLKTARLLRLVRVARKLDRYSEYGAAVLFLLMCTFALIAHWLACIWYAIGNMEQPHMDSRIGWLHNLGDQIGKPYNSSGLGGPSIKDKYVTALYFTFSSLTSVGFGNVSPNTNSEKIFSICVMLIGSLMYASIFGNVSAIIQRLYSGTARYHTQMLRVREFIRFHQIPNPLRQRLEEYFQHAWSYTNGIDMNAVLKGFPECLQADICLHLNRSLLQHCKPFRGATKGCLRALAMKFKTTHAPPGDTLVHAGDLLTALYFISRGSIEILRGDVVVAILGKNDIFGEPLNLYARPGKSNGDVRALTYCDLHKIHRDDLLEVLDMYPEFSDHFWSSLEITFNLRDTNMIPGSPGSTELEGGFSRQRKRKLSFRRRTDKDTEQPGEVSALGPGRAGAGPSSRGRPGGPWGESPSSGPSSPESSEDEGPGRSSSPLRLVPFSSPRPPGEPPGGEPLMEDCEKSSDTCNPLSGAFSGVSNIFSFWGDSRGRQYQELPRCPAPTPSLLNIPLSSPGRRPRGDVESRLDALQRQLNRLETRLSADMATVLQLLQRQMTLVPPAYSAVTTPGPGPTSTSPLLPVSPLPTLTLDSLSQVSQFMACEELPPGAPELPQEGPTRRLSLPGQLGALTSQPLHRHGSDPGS

Compound: CCCCCCCC[N+](CCCCCCCC)(CCCCCCCC)CCCCCCCC [TB, tetra-n-octylammonium bromide]
- IC50: 4 nM
